Test results taken from paper PMC4548243, “Nuclear Localization of the DNA Repair Scaffold XRCC1: Uncovering the Functional Role of a Bipartite NLS” (Scientific Reports, 2015).
Residues, ends and D or L forms follow the SMILES beside them. *: point of attachment. FITC = O=C1OC2(c3ccc(O)cc3Oc3cc(O)ccc32)c2ccc(NC(=S)*)cc21

Molecular target: T1, Impα(70–529)(W184R/W231R) (Mus musculus, UniProt P52293, W184R/W231R)
T1 construct: His tag; made in house; host or cells: E. coli BL21(DE3), pET30
Test: Fluorescence polarization titration of FITC-labeled XRCC1 NLS peptides with major-site mutant Impα(70–529)(W184R/W231R)
Type: binding, murine
Details: relative to wild-type Impα(70–529)
Description: A His-tagged murine Importin α protein with the Importin β binding domain (IBB) deleted, which is identical to Impα(70–529) studied by Fontes et al.[30], was expressed in E. coli. […] The major binding pocket double mutant W184R/W231R was created using a Quikchange site-directed mutagenesis kit (Agilent).
Protein concentrations were determined by the Edelhoch procedure[59].
Apparent peptide dissociation constants were determined based on fluorescence polarization measurements using FITC-labeled peptides. Impα(70–529) was exchanged into FP buffer (20 mM Tris, pH 7.7, 125 mM NaCl, 1 mM EDTA, 2 mM tris(2-carboxyethyl)phosphine, 5% sucrose, 10 mM NaN3). […] 50 μL volumes of the binding reactions were pipetted into wells of a 96-well black flat bottomed plate and fluorescence polarization was read at room temperature with the POLARstar Omega microplate reader (BMG Labtech) using excitation at 485 nm and emission at 520 nm. […] The fluorescence polarization values generated by the experiments are arbitrary, so for easy comparisons among samples, the data were normalized to a 0–100 scale after curve-fitting. […]
Where Ycalc represents the fluorescence polarization value that is generated by the model. […]
The FITC tags were selected in an attempt to minimize possible non-specific interactions of the fluorescein with the Impα(70–529). […] Concentrations of unlabeled peptides were determined by UV absorbance[62].

Row | SMILES | binding affinity to Impα(70–529)(W184R/W231R), in words
1 | CC(C)C[C@H](NC(=O)[C@H](CCCCN)NC(=O)[C@@H]1CCCN1C(=O)[C@H](CCCNC(=N)N)NC(=O)[C@H](CCCCN)NC(=O)[C@@H]1CCCN1C(=O)[C@@H](NC(=O)[C@@H](N)CO)C(C)C)C(=O)N1CCC[C@H]1C(=O)NCC(=O)N[C@@H](CCCCNC(=S)Nc1ccc2c(c1)C(=O)OC21c2ccc(O)cc2Oc2cc(O)ccc21)C(=O)O [Peptide M2] (H-SVPKRPKLPGK(FITC)-OH; N-terminus and C-terminus assumed) | interacts only weakly
2 | CC(C)C[C@H](NC(=O)[C@H](CCCCN)NC(=O)[C@H](CCCNC(=N)N)NC(=O)[C@H](CCCCN)NC(=O)CNC(=O)CNC(=S)Nc1ccc2c(c1)C(=O)OC21c2ccc(O)cc2Oc2cc(O)ccc21)C(=O)O [Peptide M1] ({FITC}-GGKRKL-OH; C-terminus assumed) | essentially unaffected
